The assay relates to MV-4-11 cells. Nature of the assay: Gene expression microarray analysis (Affymetrix PrimeView) and GSEA. Particulars: MV-4-11 cells, 48 hours. In kind it is cell-based, human. Also on record: RFU PODN (11730768_x_at) / Fold change /veh PODN (11730768_x_at) / RFU LINC00158 (11744669_a_at) / Fold change /veh LINC00158 (11744669_a_at) / RFU DUSP10 (11751237_a_at) / Fold change /veh DUSP10 (11751237_a_at) / RFU ID3 (11757404_x_at) / Fold change /veh ID3 (11757404_x_at) / RFU PLEKHG5 (11737974_s_at) / Fold change /veh PLEKHG5 (11737974_s_at) / RFU LRRC4B (11730491_at) / Fold change /veh LRRC4B (11730491_at) / RFU GIMAP4 (11747438_a_at) / Fold change /veh GIMAP4 (11747438_a_at) / RFU KRT8 (11758183_x_at) / Fold change /veh KRT8 (11758183_x_at) / RFU CNN1 (11734310_a_at) / Fold change /veh CNN1 (11734310_a_at) / RFU VPS37D (11726825_at) / Fold change /veh VPS37D (11726825_at) / RFU C10orf10 (11716522_x_at) / Fold change /veh C10orf10 (11716522_x_at) / RFU KIR2DL2 /// KIR2DL4 /// KIR2DL5A /// KIR2DL5B /// KIR2DS1 /// KIR2DS2 /// KIR2DS3 /// KIR2DS4 /// KIR3DL3 /// KIR3DL3 /// KIR3DS1 (11738374_at) / Fold change /veh KIR2DL2 /// KIR2DL4 /// KIR2DL5A /// KIR2DL5B /// KIR2DS1 /// KIR2DS2 /// KIR2DS3 /// KIR2DS4 /// KIR3DL3 /// KIR3DL3 /// KIR3DS1 (11738374_at) / RFU C1QL1 (11718748_at) / Fold change /veh C1QL1 (11718748_at) / RFU TMPRSS4 (11747572_a_at) / Fold change /veh TMPRSS4 (11747572_a_at) / RFU HAMP (11756126_x_at) / Fold change /veh HAMP (11756126_x_at) / RFU RNFT2 (11725882_a_at) / Fold change /veh RNFT2 (11725882_a_at) / RFU NR4A2 (11747474_a_at) / Fold change /veh NR4A2 (11747474_a_at) / RFU ABCC12 (11746883_a_at) / Fold change /veh ABCC12 (11746883_a_at) / RFU TMEM136 (11760407_x_at) / Fold change /veh TMEM136 (11760407_x_at) / RFU CLDN22 /// WWC2 (11732394_at) / Fold change /veh CLDN22 /// WWC2 (11732394_at) / RFU HLA-DPB1 (11760878_x_at) / Fold change /veh HLA-DPB1 (11760878_x_at) / RFU SPINT1 (11716480_a_at) / Fold change /veh SPINT1 (11716480_a_at) / RFU GAP43 (11754022_s_at) / Fold change /veh GAP43 (11754022_s_at) / RFU A4GNT (11735810_at) / Fold change /veh A4GNT (11735810_at) / RFU PRB3 (11715151_x_at) / Fold change /veh PRB3 (11715151_x_at) / RFU TUBB4B (11761932_at) / Fold change /veh TUBB4B (11761932_at) / RFU CAPN14 (11732068_a_at) / Fold change /veh CAPN14 (11732068_a_at) / RFU TMCC2 (11721928_a_at) / Fold change /veh TMCC2 (11721928_a_at) / RFU IRGQ (11745062_a_at) / Fold change /veh IRGQ (11745062_a_at) / RFU FAM174B (11720279_a_at) / Fold change /veh FAM174B (11720279_a_at) / RFU TMPRSS4 (11748680_a_at) / Fold change /veh TMPRSS4 (11748680_a_at) / RFU FAM212B (11763350_a_at) / Fold change /veh FAM212B (11763350_a_at) / RFU PLEKHG5 (11743358_a_at) / Fold change /veh PLEKHG5 (11743358_a_at) / RFU ZSCAN30 (11745921_a_at) / Fold change /veh ZSCAN30 (11745921_a_at) / RFU CMKLR1 (11741424_a_at) / Fold change /veh CMKLR1 (11741424_a_at) / RFU LOC101060620 /// MAPK8IP1 (11723275_at) / Fold change /veh LOC101060620 /// MAPK8IP1 (11723275_at) / RFU SPTSSB (11747773_x_at) / Fold change /veh SPTSSB (11747773_x_at) / RFU PRSS12 (11739890_at) / Fold change /veh PRSS12 (11739890_at) / RFU BIN1 (11741810_x_at) / Fold change /veh BIN1 (11741810_x_at) / RFU WNT11 (11732464_a_at) / Fold change /veh WNT11 (11732464_a_at) / RFU C10orf10 (11716521_a_at) / Fold change /veh C10orf10 (11716521_a_at) / RFU C5orf56 (11738089_at) / Fold change /veh C5orf56 (11738089_at) / RFU CYB561 (11721691_x_at) / Fold change /veh CYB561 (11721691_x_at) / RFU ANKRD19P (11752326_a_at) / Fold change /veh ANKRD19P (11752326_a_at) / RFU OR2T12 /// OR2T33 /// OR2T8 (11738714_s_at) / Fold change /veh OR2T12 /// OR2T33 /// OR2T8 (11738714_s_at) / RFU VCAN (11748164_a_at) / Fold change /veh VCAN (11748164_a_at) / RFU JSRP1 (11732532_at) / Fold change /veh JSRP1 (11732532_at) / RFU KRTAP10-11 (11738290_x_at) / Fold change /veh KRTAP10-11 (11738290_x_at) / RFU MYO3A (11730013_a_at) / Fold change /veh MYO3A (11730013_a_at) / RFU EBF3 (11725865_a_at) / Fold change /veh EBF3 (11725865_a_at) / RFU CAMK2N1 (11719241_x_at) / Fold change /veh CAMK2N1 (11719241_x_at) / RFU C5orf56 (11738088_a_at) / Fold change /veh C5orf56 (11738088_a_at) / RFU OLFML3 (11715873_a_at) / Fold change /veh OLFML3 (11715873_a_at) / RFU LOC100653217 /// NTM (11731650_a_at) / Fold change /veh LOC100653217 /// NTM (11731650_a_at) / RFU MAPK11 (11762145_a_at) / Fold change /veh MAPK11 (11762145_a_at) / RFU FIZ1 (11724087_x_at) / Fold change /veh FIZ1 (11724087_x_at) / RFU OASL (11726364_x_at) / Fold change /veh OASL (11726364_x_at) / RFU SOX15 (11748057_x_at) / Fold change /veh SOX15 (11748057_x_at) / RFU CD79A (11719716_a_at) / Fold change /veh CD79A (11719716_a_at) / RFU HIST1H1D (11736915_at) / Fold change /veh HIST1H1D (11736915_at) / RFU CASKIN2 (11723855_a_at) / Fold change /veh CASKIN2 (11723855_a_at) / RFU LOC730098 (11760151_x_at) / Fold change /veh LOC730098 (11760151_x_at) / RFU OR4N2 (11742367_at) / Fold change /veh OR4N2 (11742367_at) / RFU PRRT2 (11749266_a_at) / Fold change /veh PRRT2 (11749266_a_at) / RFU SNX32 (11753110_a_at) / Fold change /veh SNX32 (11753110_a_at) / RFU CDHR5 (11726645_a_at) / Fold change /veh CDHR5 (11726645_a_at) / RFU RCAN1 (11760418_a_at) / Fold change /veh RCAN1 (11760418_a_at) / RFU FAM167A (11723789_a_at) / Fold change /veh FAM167A (11723789_a_at) / RFU FAM26E (11764081_at) / Fold change /veh FAM26E (11764081_at) / RFU ISYNA1 (11749810_s_at) / Fold change /veh ISYNA1 (11749810_s_at) / RFU ACY1 (11761880_at) / Fold change /veh ACY1 (11761880_at) / RFU 11764098_at / Fold change /veh 11764098_at / RFU SAMD14 (11745864_x_at) / Fold change /veh SAMD14 (11745864_x_at) / RFU NPB (11741838_a_at) / Fold change /veh NPB (11741838_a_at) / RFU TMPRSS6 (11731388_a_at) / Fold change /veh TMPRSS6 (11731388_a_at) / RFU KRTAP10-2 (11738614_at) / Fold change /veh KRTAP10-2 (11738614_at) / RFU ARHGAP8 /// PRR5-ARHGAP8 (11727945_x_at) / Fold change /veh ARHGAP8 /// PRR5-ARHGAP8 (11727945_x_at) / RFU KRTAP5-7 /// NADSYN1 (11734609_at) / Fold change /veh KRTAP5-7 /// NADSYN1 (11734609_at) / RFU RASL12 (11751679_a_at) / Fold change /veh RASL12 (11751679_a_at) / RFU CDKN2B (11736163_a_at) / Fold change /veh CDKN2B (11736163_a_at) / RFU PRF1 (11729649_at) / Fold change /veh PRF1 (11729649_at) / RFU, ZNF638 /// ZNF638-IT1 / Fold change vs veh, ZNF638 /// ZNF638-IT1 / RFU, PANK3 / Fold change vs veh, PANK3 / RFU, SH3YL1 / Fold change vs veh, SH3YL1 / RFU, ZEB2 / Fold change vs veh, ZEB2 / RFU, NRIP1 / Fold change vs veh, NRIP1 / RFU, PTTG1IP / Fold change vs veh, PTTG1IP / RFU, CAPN2 / Fold change vs veh, CAPN2 / RFU, MED14 / Fold change vs veh, MED14 / RFU, SNORA58 / Fold change vs veh, SNORA58 / RFU, C1orf63 / Fold change vs veh, C1orf63 / RFU, LRRFIP1 / Fold change vs veh, LRRFIP1 / RFU, NDUFAF7 / Fold change vs veh, NDUFAF7 / RFU, SLC12A2 / Fold change vs veh, SLC12A2 / RFU, IBTK / Fold change vs veh, IBTK / RFU, ESF1 / Fold change vs veh, ESF1 / Fold change vs veh, TMEM50B / RFU, TAOK1 / Fold change vs veh, TAOK1 / RFU, ACBD3 / Fold change vs veh, ACBD3 / RFU, TMA16 / Fold change vs veh, TMA16 / RFU, RWDD3 / Fold change vs veh, RWDD3 / RFU, BCAT1 / Fold change vs veh, BCAT1 / RFU, EDEM3 / Fold change vs veh, EDEM3 / RFU, TMEM33 / Fold change vs veh, TMEM33 / RFU, WDR75 / Fold change vs veh, WDR75 / RFU, AHCTF1 / Fold change vs veh, AHCTF1 / RFU, TFRC / Fold change vs veh, TFRC / RFU, ZDHHC17 / Fold change vs veh, ZDHHC17 / RFU, NOM1 / Fold change vs veh, NOM1 / RFU, ARL8B / Fold change vs veh, ARL8B / RFU, ZBTB11 / Fold change vs veh, ZBTB11 / RFU, TAMM41 / Fold change vs veh, TAMM41 / RFU, KIAA1704 /// LOC100996395 / Fold change vs veh, KIAA1704 /// LOC100996395 / RFU, ING1 / Fold change vs veh, ING1 / RFU, TRMT61B / Fold change vs veh, TRMT61B / RFU, FUBP3 / Fold change vs veh, FUBP3 / RFU, TP53 / Fold change vs veh, TP53 / RFU, TNKS2 / Fold change vs veh, TNKS2 / RFU, ZFP14 / Fold change vs veh, ZFP14 / RFU, ACTR2 / Fold change vs veh, ACTR2 / RFU, PPP3R1 / Fold change vs veh, PPP3R1 / RFU, PIK3R1 / Fold change vs veh, PIK3R1 / RFU, HNRNPA1 / Fold change vs veh, HNRNPA1 / RFU, RNF170 / Fold change vs veh, RNF170 / RFU, ZNF28 / Fold change vs veh, ZNF28 / RFU, RNGTT / Fold change vs veh, RNGTT / RFU, OGT / Fold change vs veh, OGT / RFU, BRD1 / Fold change vs veh, BRD1 / RFU, MARS / Fold change vs veh, MARS / RFU, ZNF655 / Fold change vs veh, ZNF655 / RFU, FAHD1 / Fold change vs veh, FAHD1 / RFU, BDP1 / Fold change vs veh, BDP1 / RFU, LRRCC1 / Fold change vs veh, LRRCC1 / RFU, ARID1A / Fold change vs veh, ARID1A / RFU, ZNF146 / Fold change vs veh, ZNF146 / RFU, ZNF330 / Fold change vs veh, ZNF330 / RFU, GPN3 / Fold change vs veh, GPN3 / RFU, C9orf123 / Fold change vs veh, C9orf123 / RFU, N4BP2L2 / Fold change vs veh, N4BP2L2 / RFU, ARFIP1 / Fold change vs veh, ARFIP1 / RFU, FAM179B / Fold change vs veh, FAM179B / RFU, BCL10 / Fold change vs veh, BCL10 / RFU, UHRF1BP1L / Fold change vs veh, UHRF1BP1L / RFU, BET1 / Fold change vs veh, BET1 / RFU, CNOT2 / Fold change vs veh, CNOT2 / RFU, ZNF268 / Fold change vs veh, ZNF268 / Fold change vs veh, ZNF507 / RFU, DGCR2 / Fold change vs veh, DGCR2 / RFU, WDSUB1 / Fold change vs veh, WDSUB1 / Fold change vs veh, HSP90B1 /// MIR3652 / RFU, ADSS / Fold change vs veh, ADSS / RFU, GK / Fold change vs veh, GK / RFU, ZNF148 / Fold change vs veh, ZNF148 / RFU, TAF9 / Fold change vs veh, TAF9 / RFU, SLC1A5 / Fold change vs veh, SLC1A5 / RFU, SLMO2 / Fold change vs veh, SLMO2 / RFU, ABCC4 / Fold change vs veh, ABCC4 / RFU, LOC101060439 /// RAP1B / Fold change vs veh, LOC101060439 /// RAP1B / RFU, RFX7 / Fold change vs veh, RFX7 / RFU, GTPBP10 / Fold change vs veh, GTPBP10 / RFU, CNEP1R1 / Fold change vs veh, CNEP1R1 / RFU, BIVM-ERCC5 /// ERCC5 / Fold change vs veh, BIVM-ERCC5 /// ERCC5 / RFU, ILF3 / Fold change vs veh, ILF3 / RFU 11762660_at / Fold change /veh 11762660_at / RFU VCAN (11757783_s_at) / Fold change /veh VCAN (11757783_s_at) / RFU DDX43 (11728927_at) / Fold change /veh DDX43 (11728927_at) / RFU KRT8 (11758188_x_at) / Fold change /veh KRT8 (11758188_x_at) / RFU NKD1 (11759106_at) / Fold change /veh NKD1 (11759106_at) / RFU SRD5A1 (11742802_a_at) / Fold change /veh SRD5A1 (11742802_a_at) / RFU TPSAB1 /// TPSB2 (11721975_s_at) / Fold change /veh TPSAB1 /// TPSB2 (11721975_s_at) / RFU GSTM3 (11746129_a_at) / Fold change /veh GSTM3 (11746129_a_at) / RFU IL23R (11737362_x_at) / Fold change /veh IL23R (11737362_x_at) / RFU TMEM51 (11727254_a_at) / Fold change /veh TMEM51 (11727254_a_at) / RFU PIWIL2 (11732686_x_at) / Fold change /veh PIWIL2 (11732686_x_at) / RFU ORM1 (11744905_x_at) / Fold change /veh ORM1 (11744905_x_at) / RFU CCDC152 (11743942_at) / Fold change /veh CCDC152 (11743942_at) / RFU ECM1 (11717891_a_at) / Fold change /veh ECM1 (11717891_a_at) / RFU IL23R (11748794_a_at) / Fold change /veh IL23R (11748794_a_at) / RFU TNFAIP8L3 (11732012_x_at) / Fold change /veh TNFAIP8L3 (11732012_x_at) / RFU MBOAT4 (11741988_at) / Fold change /veh MBOAT4 (11741988_at) / RFU 11764193_at / Fold change /veh 11764193_at / RFU TMEM53 (11763286_at) / Fold change /veh TMEM53 (11763286_at) / RFU MAGEB2 (11727129_at) / Fold change /veh MAGEB2 (11727129_at) / RFU TMEM200A (11744735_a_at) / Fold change /veh TMEM200A (11744735_a_at) / RFU CCDC152 (11751479_a_at) / Fold change /veh CCDC152 (11751479_a_at) / RFU FAM211A (11726209_a_at) / Fold change /veh FAM211A (11726209_a_at) / RFU RGS16 (11746705_a_at) / Fold change /veh RGS16 (11746705_a_at) / RFU VCAN (11755009_s_at) / Fold change /veh VCAN (11755009_s_at) / RFU RHOB (11743442_s_at) / Fold change /veh RHOB (11743442_s_at) / RFU RGS16 (11720943_a_at) / Fold change /veh RGS16 (11720943_a_at) / RFU RGS16 (11720944_at) / Fold change /veh RGS16 (11720944_at) / RFU, VPS4B / Fold change vs veh, VPS4B / RFU, CREB1 / Fold change vs veh, CREB1 / RFU, DNAJC13 / Fold change vs veh, DNAJC13 / RFU, GNAQ / Fold change vs veh, GNAQ / RFU, CDK5R1 / Fold change vs veh, CDK5R1 / RFU, ZRANB3 / Fold change vs veh, ZRANB3 / RFU, CUL4A / Fold change vs veh, CUL4A / RFU, CCNY / Fold change vs veh, CCNY / RFU, UFL1 / Fold change vs veh, UFL1 / RFU, COG3 / Fold change vs veh, COG3 / RFU, DIAPH2 / Fold change vs veh, DIAPH2 / RFU, SKA2 / Fold change vs veh, SKA2 / RFU, AFF3 / Fold change vs veh, AFF3 / RFU, LMF1 / Fold change vs veh, LMF1 / RFU, IPO11 / Fold change vs veh, IPO11 / RFU, DFFB / Fold change vs veh, DFFB / RFU, FOXP1 / Fold change vs veh, FOXP1 / RFU, CARD8 / Fold change vs veh, CARD8 / RFU, STRN3 / Fold change vs veh, STRN3 / RFU, ADK / Fold change vs veh, ADK / RFU, RASSF2 / Fold change vs veh, RASSF2 / RFU, WIPF1 / Fold change vs veh, WIPF1 / RFU, LARP1B / Fold change vs veh, LARP1B / RFU, RASA1 / Fold change vs veh, RASA1 / RFU, RB1 / Fold change vs veh, RB1 / RFU, PPFIA1 / Fold change vs veh, PPFIA1 / RFU, MAT2A / Fold change vs veh, MAT2A / RFU, CCT5 / Fold change vs veh, CCT5 / RFU, WDR92 / Fold change vs veh, WDR92 / RFU, CUX1 / Fold change vs veh, CUX1 / RFU, TTC7A / Fold change vs veh, TTC7A / RFU, TMEM135 / Fold change vs veh, TMEM135 / RFU, DEPTOR / Fold change vs veh, DEPTOR / RFU, CPM / Fold change vs veh, CPM / RFU, DNAJB6 / Fold change vs veh, DNAJB6 / RFU, CACNA2D3 / Fold change vs veh, CACNA2D3 / RFU, DTX4 / Fold change vs veh, DTX4 / RFU, TFCP2 / Fold change vs veh, TFCP2 / RFU, GMCL1 /// GMCL1P1 / Fold change vs veh, GMCL1 /// GMCL1P1 / RFU, AEBP2 / Fold change vs veh, AEBP2 / RFU, SNHG1 /// SNORD22 /// SNORD25 /// SNORD26 /// SNORD27 /// SNORD28 /// SNORD29 /// SNORD31 / Fold change vs veh, SNHG1 /// SNORD22 /// SNORD25 /// SNORD26 /// SNORD27 /// SNORD28 /// SNORD29 /// SNORD31 / Fold change (Aza/veh), C12orf56 (ProbeSet 11735607_a_at) / Fold change (ACY-1035/veh), C12orf56 (ProbeSet 11735607_a_at) / Fold change (Aza/veh), FGFR1OP (ProbeSet 11751329_s_at) / Fold change (ACY-1035/veh), FGFR1OP (ProbeSet 11751329_s_at) / Fold change (Aza/veh), VPS36 (ProbeSet 11739960_a_at) / Fold change (ACY-1035/veh), VPS36 (ProbeSet 11739960_a_at) / RFU SYPL1 (11715823_x_at) / Fold change /veh SYPL1 (11715823_x_at) / RFU IGFBP7 (11715501_s_at) / Fold change /veh IGFBP7 (11715501_s_at) / RFU REEP3 (11722064_at) / Fold change /veh REEP3 (11722064_at) / RFU IGLL1 (11728026_x_at) / Fold change /veh IGLL1 (11728026_x_at): dose or concentration left out as unconfirmed.

As to `Nc1ccc(-c2cccs2)cc1NC(=O)c1ccc2c(c1)cc(C1CC1)n2CCN1CCOCC1` [ACY-1035], the “RFU IGFBP7 (11715501_s_at)” value stood at 134.15 RFU.

These data come from publication PMC5218480 (PLoS ONE, 2017).
